The values below come from patent US10160755B2 (Plexxikon Inc., priority 2015, dated 2018).

Molecules are shown by their SMILES.

In one experiment the target is c-Kit (Homo sapiens, UniProt P10721). The experiment is described as follows: c-Kit biochemical assay (per US 2007/0032519). Summed up:
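Biochemical kinase inhibition run per US 2007/0032519; values reported as binned IC50 ranges (0.0001–1 μM, 1–10 μM, 10–200 μM).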

The target of a further experiment is T1, FLT3-D835Y (Homo sapiens, UniProt P36888, D835Y).
T1 construct: purchased Invitrogen PV3967
T1 sequence (P36888 27-993 D835Y): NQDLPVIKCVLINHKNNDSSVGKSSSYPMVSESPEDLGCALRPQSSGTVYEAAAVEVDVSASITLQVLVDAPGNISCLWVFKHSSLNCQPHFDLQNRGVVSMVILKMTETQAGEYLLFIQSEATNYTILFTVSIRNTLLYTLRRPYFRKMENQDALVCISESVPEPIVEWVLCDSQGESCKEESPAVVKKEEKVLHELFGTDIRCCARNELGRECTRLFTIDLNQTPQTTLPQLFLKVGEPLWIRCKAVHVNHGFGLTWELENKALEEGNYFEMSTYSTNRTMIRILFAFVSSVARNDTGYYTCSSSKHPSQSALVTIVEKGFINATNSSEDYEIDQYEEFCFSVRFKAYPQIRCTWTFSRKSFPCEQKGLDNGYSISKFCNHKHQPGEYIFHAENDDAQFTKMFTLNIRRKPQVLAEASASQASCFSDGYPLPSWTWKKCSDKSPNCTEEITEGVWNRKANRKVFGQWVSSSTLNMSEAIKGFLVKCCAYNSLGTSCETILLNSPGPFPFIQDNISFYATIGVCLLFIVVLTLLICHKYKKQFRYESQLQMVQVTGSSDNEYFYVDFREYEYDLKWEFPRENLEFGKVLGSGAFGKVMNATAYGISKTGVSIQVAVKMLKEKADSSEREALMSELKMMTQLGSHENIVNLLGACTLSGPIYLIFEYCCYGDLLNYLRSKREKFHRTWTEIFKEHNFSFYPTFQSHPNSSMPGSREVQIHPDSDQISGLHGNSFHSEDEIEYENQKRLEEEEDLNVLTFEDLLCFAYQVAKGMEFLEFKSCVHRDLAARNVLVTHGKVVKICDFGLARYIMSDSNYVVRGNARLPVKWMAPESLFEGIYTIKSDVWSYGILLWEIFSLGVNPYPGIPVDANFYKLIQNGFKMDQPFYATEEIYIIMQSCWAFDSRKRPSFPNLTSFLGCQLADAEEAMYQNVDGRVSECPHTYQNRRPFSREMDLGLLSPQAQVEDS
The experiment is described as follows: FLT3-D835Y biochemical kinase assay (AlphaScreen). An outline of the steps: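 First, recombinant FLT3 variant phosphorylates a biotinylated poly(Glu4-Tyr) peptide (30 nM) with ATP at 10 μM (D835Y) or 100 μM (ITD). Streptavidin donor beads are then added for 20 min at room temperature, followed by anti-phosphotyrosine PY20 acceptor beads for 60 min. Signal at 580 nm gives IC50.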
For orientation: Alpha assays give light when donor and acceptor beads are brought close together.

Chain of c-Kit (P10721 26-976): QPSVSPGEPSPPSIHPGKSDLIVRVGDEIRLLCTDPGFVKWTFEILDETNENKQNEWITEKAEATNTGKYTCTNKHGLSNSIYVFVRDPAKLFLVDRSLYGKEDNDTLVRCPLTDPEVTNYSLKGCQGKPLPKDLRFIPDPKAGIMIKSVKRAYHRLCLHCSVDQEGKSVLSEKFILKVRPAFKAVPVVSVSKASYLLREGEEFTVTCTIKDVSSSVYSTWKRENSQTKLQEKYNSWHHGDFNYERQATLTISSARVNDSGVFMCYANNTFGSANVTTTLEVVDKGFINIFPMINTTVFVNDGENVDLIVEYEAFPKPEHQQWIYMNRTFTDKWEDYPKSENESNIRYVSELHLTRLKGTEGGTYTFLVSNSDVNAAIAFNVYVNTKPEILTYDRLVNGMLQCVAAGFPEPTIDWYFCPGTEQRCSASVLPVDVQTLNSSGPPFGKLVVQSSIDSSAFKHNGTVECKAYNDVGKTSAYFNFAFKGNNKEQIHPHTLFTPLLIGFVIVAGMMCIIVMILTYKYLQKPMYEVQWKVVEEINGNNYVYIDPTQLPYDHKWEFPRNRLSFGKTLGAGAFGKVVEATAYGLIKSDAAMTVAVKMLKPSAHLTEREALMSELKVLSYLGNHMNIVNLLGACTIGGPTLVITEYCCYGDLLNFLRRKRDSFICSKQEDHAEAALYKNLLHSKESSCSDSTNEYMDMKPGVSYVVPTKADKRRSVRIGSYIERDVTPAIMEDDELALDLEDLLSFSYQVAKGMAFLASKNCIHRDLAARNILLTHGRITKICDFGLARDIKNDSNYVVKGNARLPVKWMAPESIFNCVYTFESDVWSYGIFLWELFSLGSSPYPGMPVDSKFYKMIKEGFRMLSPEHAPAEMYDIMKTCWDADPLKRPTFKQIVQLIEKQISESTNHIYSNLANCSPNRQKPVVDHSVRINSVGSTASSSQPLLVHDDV

For the compound `COc1cc(-c2cnc3[nH]cc(-c4ccc5ncn(C(C)(C)C)c5c4)c3n2)ccn1` [P-099, 7-(3-tert-butylbenzimidazol-5-yl)-2-(2-methoxy-4-pyridyl)-5H-pyrrolo[2,3-b]pyrazine], the half-inhibitory concentration (IC50) (commonly the concentration that gives 50% inhibition) on c-Kit was 1 to 10 µM; against FLT3-D835Y, 0.0001 to 1 µM.
With `COc1cnc2[nH]cc(-c3ccc4ncn(-c5cccc(F)c5)c4c3)c2c1` [P-128, 1-(3-fluorophenyl)-6-(5-methoxy-1H-pyrrolo[2,3-b]pyridin-3-yl)benzimidazole], the half-inhibitory concentration (IC50) against c-Kit is 10 to 200 µM; at FLT3-D835Y, 0.0001 to 1 µM.
For `CN(c1cccc(-c2cnc3[nH]cc(-c4ccc5ncn(C)c5c4)c3c2)c1)S(C)(=O)=O` [P-120, N-methyl-N-[3-[3-(3-methylbenzimidazol-5-yl)-1H-pyrrolo[2,3-b]pyridin-5-yl]phenyl]methanesulfonamide], the IC50 is 1 to 10 µM against c-Kit and 0.0001 to 1 µM at FLT3-D835Y.
`COc1cnc2[nH]cc(-c3ccc4ncn(-c5ccc(F)c(C)c5)c4c3)c2c1` [P-129, 1-(4-fluoro-3-methyl-phenyl)-6-(5-methoxy-1H-pyrrolo[2,3-b]pyridin-3-yl)benzimidazole]: the results for the half-maximal inhibitory concentration (IC50) on c-Kit and against FLT3-D835Y were 10 to 200 µM and 0.0001 to 1 µM, respectively.
For `CC(C)(C)n1cnc2ccc(-c3c[nH]c4ncc(-c5cccc(NS(C)(=O)=O)c5)nc34)cc21` [P-097, N-[3-[7-(3-tert-butylbenzimidazol-5-yl)-5H-pyrrolo[2,3-b]pyrazin-2-yl]phenyl]methanesulfonamide], in that order: 0.0001 to 1 µM and 0.0001 to 1 µM.
On FLT3-D835Y, `CC(C)(C)n1cnc2ccc(-c3c[nH]c4ncc(-c5ccnc(N6CCOCC6)c5)nc34)cc21` [P-228, 4-[4-[7-(3-tert-butylbenzimidazol-5-yl)-5H-pyrrolo[2,3-b]pyrazin-2-yl]-2-pyridyl]morpholine] came in with a half-maximal inhibitory concentration (IC50) of 0.0001 to 1 µM.
Consider `COc1cnc2[nH]cc(-c3cnc4ncn(Cc5cc(C)on5)c4c3)c2c1` [P-144, 3-[[6-(5-methoxy-1H-pyrrolo[2,3-b]pyridin-3-yl)imidazo[4,5-b]pyridin-1-yl]methyl]-5-methyl-isoxazole], for which, at FLT3-D835Y, the IC50 lay in the range of 0.0001 to 1 µM.
Take `c1cc(-c2cnc3[nH]cc(-c4ccc5ncn(C6CCCNC6)c5c4)c3n2)cc(N2CCOCC2)n1` (centres unmarked) [P-262, 4-[4-[7-[3-(3-piperidyl)benzimidazol-5-yl]-5H-pyrrolo[2,3-b]pyrazin-2-yl]-2-pyridyl]morpholine]: the IC50 against FLT3-D835Y is 0.0001 to 1 µM.
Same read-out and setting: with `CC(C)n1cnc2ccc(-c3c[nH]c4ncc(-c5cnn(CC(F)(F)F)c5)cc34)cc21` [P-268, 1-isopropyl-6-[5-[1-(2,2,2-trifluoroethyl)pyrazol-4-yl]-1H-pyrrolo[2,3-b]pyridin-3-yl]benzimidazole] the figure was 0.0001 to 1 µM; with `CC(C)(C)n1cnc2ccc(-c3c[nH]c4ncc(-c5ccc(N6CCOCC6)cc5)nc34)cc21` [P-100, 4-[4-[7-(3-tert-butylbenzimidazol-5-yl)-5H-pyrrolo[2,3-b]pyrazin-2-yl]phenyl]morpholine], 0.0001 to 1 µM.
Same read-out and setting: for `COc1cc(-c2cnc3[nH]cc(-c4ccc5ncn(C(C)C)c5c4)c3n2)ccn1` [P-113, 7-(3-isopropylbenzimidazol-5-yl)-2-(2-methoxy-4-pyridyl)-5H-pyrrolo[2,3-b]pyrazine] the value was 0.0001 to 1 µM; for `COc1ncc(-c2cnc3[nH]cc(-c4ccc5ncn(C(C)(C)C)c5c4)c3n2)cn1` [P-263, 7-(3-tert-butylbenzimidazol-5-yl)-2-(2-methoxypyrimidin-5-yl)-5H-pyrrolo[2,3-b]pyrazine], 0.0001 to 1 µM; for `CC(C)(C)n1cnc2ccc(-c3c[nH]c4ncc(-c5cnn(C(F)F)c5)nc34)cc21` [P-255, 7-(3-tert-butylbenzimidazol-5-yl)-2-[1-(difluoromethyl)pyrazol-4-yl]-5H-pyrrolo[2,3-b]pyrazine], 0.0001 to 1 µM.
As for `COc1cnc2[nH]cc(-c3ccc4ncn(-c5cccc(C#N)c5)c4c3)c2c1` [P-135, 3-[6-(5-methoxy-1H-pyrrolo[2,3-b]pyridin-3-yl)benzimidazol-1-yl]benzonitrile], the IC50 against c-Kit lay within 10 to 200 µM; against FLT3-D835Y, 0.0001 to 1 µM.
On to `C(#Cc1cnc2[nH]cc(-c3ccc4ncn(C5CCCNC5)c4c3)c2n1)c1ccccc1` (centres unmarked) [P-248, 2-(2-phenylethynyl)-7-[3-(3-piperidyl)benzimidazol-5-yl]-5H-pyrrolo[2,3-b]pyrazine], for which, at FLT3-D835Y, the IC50 lay within 0.0001 to 1 µM.
Consider `COc1cc(C(=O)Nc2cnc3[nH]cc(-c4ccc5ncn(C(C)(C)C)c5c4)c3c2)ccn1` [P-245, N-[3-(3-tert-butylbenzimidazol-5-yl)-1H-pyrrolo[2,3-b]pyridin-5-yl]-2-methoxy-pyridine-4-carboxamide], for which the concentration for half-maximal inhibition (IC50) at FLT3-D835Y fell in the range of 0.0001 to 1 µM.
The compound `CC(C)(C)n1cnc2ccc(-c3c[nH]c4ncc(-c5cccc(N6CCCCS6(=O)=O)c5)cc34)cc21` [P-221, 2-[3-[3-(3-tert-butylbenzimidazol-5-yl)-1H-pyrrolo[2,3-b]pyridin-5-yl]phenyl]thiazinane 1,1-dioxide] returned an IC50 on FLT3-D835Y of 0.0001 to 1 µM.
Compound `O=S1(=O)CCCN1c1cccc(-c2cnc3[nH]cc(-c4ccc5ncn(C6CCCNC6)c5c4)c3n2)c1` (centres unmarked) [P-273, 2-[3-[7-[3-(3-piperidyl)benzimidazol-5-yl]-5H-pyrrolo[2,3-b]pyrazin-2-yl]phenyl]-1,2-thiazolidine 1,1-dioxide] had a concentration for half-maximal inhibition (IC50) on FLT3-D835Y of 0.0001 to 1 µM.
In the case of `CC(C)(C)n1cnc2ccc(-c3c[nH]c4ncc(-c5cccc(S(=O)(=O)N6CCCC6)c5)cc34)cc21` [P-220, 1-tert-butyl-6-[5-(3-pyrrolidin-1-ylsulfonylphenyl)-1H-pyrrolo[2,3-b]pyridin-3-yl]benzimidazole], the half-inhibitory concentration (IC50) against FLT3-D835Y lay in the range of 0.0001 to 1 µM.
As to `FC(F)(F)Oc1cccc(C#Cc2cnc3[nH]cc(-c4ccc5ncn(C6CCCNC6)c5c4)c3n2)c1` (centres unmarked) [P-246, 7-[3-(3-piperidyl)benzimidazol-5-yl]-2-[2-[3-(trifluoromethoxy)phenyl]ethynyl]-5H-pyrrolo[2,3-b]pyrazine], the half-inhibitory concentration (IC50) on FLT3-D835Y fell in the range of 0.0001 to 1 µM.
